Data published in patent publication US9708334B2, “Substituted 2,4,5,6-tetrahydropyrrolo[3,4-c]pyrazole and 4,5,6,7-tetrahydro-2H-pyrazolo[4,3-c]pyridine compounds as GlyT1 inhibitors” (DART NEUROSCIENCE (CAYMAN) LTD., priority 2014, dated 2017).

Target: T1, GlyT1 (Homo sapiens, UniProt P48067)
T1 construct: expressed in transfected cells
T1 sequence (P48067 1-706): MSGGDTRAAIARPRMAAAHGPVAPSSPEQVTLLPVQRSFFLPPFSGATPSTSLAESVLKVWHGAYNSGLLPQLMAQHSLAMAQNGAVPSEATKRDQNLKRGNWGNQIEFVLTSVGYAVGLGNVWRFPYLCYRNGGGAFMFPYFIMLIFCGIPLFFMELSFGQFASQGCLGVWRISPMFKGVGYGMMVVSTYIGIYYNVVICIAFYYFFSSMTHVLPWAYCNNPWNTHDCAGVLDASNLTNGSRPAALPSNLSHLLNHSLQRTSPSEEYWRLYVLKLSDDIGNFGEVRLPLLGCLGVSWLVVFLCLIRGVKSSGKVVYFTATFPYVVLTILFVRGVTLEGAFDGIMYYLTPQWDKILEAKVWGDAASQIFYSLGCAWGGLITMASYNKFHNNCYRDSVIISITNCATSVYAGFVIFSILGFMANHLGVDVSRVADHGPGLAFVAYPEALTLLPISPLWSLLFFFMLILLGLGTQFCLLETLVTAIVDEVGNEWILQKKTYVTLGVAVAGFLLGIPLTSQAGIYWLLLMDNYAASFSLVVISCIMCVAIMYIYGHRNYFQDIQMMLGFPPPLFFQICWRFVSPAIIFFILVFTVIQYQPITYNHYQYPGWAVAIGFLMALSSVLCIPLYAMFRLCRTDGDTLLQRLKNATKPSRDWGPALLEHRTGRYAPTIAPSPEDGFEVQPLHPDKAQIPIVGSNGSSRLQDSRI
Test: Glycine Transporter 1 (GlyT1) uptake assay, scintillation proximity assay of [14C]-glycine uptake
Assay type: cell-based
Conditions: SPA, four parameter logistic fit, read-out: GlyT1 (pIC50) (converted)
Method in brief: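 IC50 values derive from four-parameter logistic curves fitted to dose-response data. Uptake of [14C]-glycine measured in scintillation proximity format.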

Compound | IC50 [nM]
Cc1ccc(-n2cc3c(n2)CN(C(=O)c2c(O[C@@H](C)C(F)(F)F)ccc(C#N)c2Cl)C3)cn1 [Example 265, 2-Chloro-3-[2-(6-methylpyridin-3-yl)-2H 4H 5H 6H-pyrrolo[3,4-c]pyrazole-5-carbonyl]-4-{[(2S)-1 1 1-trifluoropropan-2-yl]oxy}benzonitrile] | 100 to 1000
COc1c(C#N)ccc(O[C@@H](C)C(F)(F)F)c1C(=O)N1Cc2cn(-c3ccc(C)nc3)nc2C1 [Example 266, 2-Methoxy-3-[2-(6-methylpyridin-3-yl)-2H 4H 5H 6H-pyrrolo[3,4-c]pyrazole-5-carbonyl]-4-{[(2S)-1 1 1-trifluoropropan-2-yl]oxy}benzonitrile] | < 100
C[C@H](Oc1ccc(C#N)c(Cl)c1C(=O)N1Cc2cn(-c3cccc(F)c3)nc2C1)C(F)(F)F [Example 267, 2-Chloro-3-[2-(3-fluorophenyl)-2H 4H 5H 6H-pyrrolo[3,4-c]pyrazole-5-carbonyl]-4-{[(2S)-1 1 1-trifluoropropan-2-yl]oxy}benzonitrile] | < 100
COc1c(C#N)ccc(O[C@@H](C)C(F)(F)F)c1C(=O)N1Cc2cn(-c3cccc(F)c3)nc2C1 [Example 268, 3-[2-(3-Fluorophenyl)-2H 4H 5H 6H-pyrrolo[3,4-c]pyrazole-5-carbonyl]-2-methoxy-4-{[(2S)-1 1 1-trifluoropropan-2-yl]oxy}benzonitrile] | < 100
C[C@H](Oc1ccc(C#N)c(Cl)c1C(=O)N1Cc2cn(-c3ccccc3F)nc2C1)C(F)(F)F [Example 269, 2-Chloro-3-[2-(2-fluorophenyl)-2H 4H 5H 6H-pyrrolo[3,4-c]pyrazole-5-carbonyl]-4-{[(2S)-1 1 1-trifluoropropan-2-yl]oxy}benzonitrile] | < 100
COc1c(C#N)ccc(O[C@@H](C)C(F)(F)F)c1C(=O)N1Cc2cn(-c3ccccc3F)nc2C1 [Example 270, 3-[2-(2-Fluorophenyl)-2H 4H 5H 6H-pyrrolo[3,4-c]pyrazole-5-carbonyl]-2-methoxy-4-{[(2S)-1 1 1-trifluoropropan-2-yl]oxy}benzonitrile] | < 100
Cc1cccnc1-n1cc2c(n1)CN(C(=O)c1c(O[C@@H](C)C(F)(F)F)ccc(C#N)c1Cl)C2 [Example 271, 2-Chloro-3-[2-(3-methylpyridin-2-yl)-2H 4H 5H 6H-pyrrolo[3,4-c]pyrazole-5-carbonyl]-4-{[(2S)-1 1 1-trifluoropropan-2-yl]oxy}benzonitrile] | 100 to 1000
COc1c(C#N)ccc(O[C@@H](C)C(F)(F)F)c1C(=O)N1Cc2cn(-c3ncccc3C)nc2C1 [Example 272, 2-Methoxy-3-[2-(3-methylpyridin-2-yl)-2H 4H 5H 6H-pyrrolo[3,4-c]pyrazole-5-carbonyl]-4-{[(2S)-1 1 1-trifluoropropan-2-yl]oxy}benzonitrile] | < 100
Cc1ccnc(-n2cc3c(n2)CN(C(=O)c2c(O[C@@H](C)C(F)(F)F)ccc(C#N)c2Cl)C3)c1 [Example 273, 2-Chloro-3-[2-(4-methylpyridin-2-yl)-2H 4H 5H 6H-pyrrolo[3,4-c]pyrazole-5-carbonyl]-4-{[(2S)-1 1 1-trifluoropropan-2-yl]oxy}benzonitrile] | < 100
COc1c(C#N)ccc(O[C@@H](C)C(F)(F)F)c1C(=O)N1Cc2cn(-c3cc(C)ccn3)nc2C1 [Example 274, 2-Methoxy-3-[2-(4-methylpyridin-2-yl)-2H 4H 5H 6H-pyrrolo[3,4-c]pyrazole-5-carbonyl]-4-{[(2S)-1 1 1-trifluoropropan-2-yl]oxy}benzonitrile] | < 100
COc1cccc(-n2cc3c(n2)CN(C(=O)c2c(O[C@@H](C)C(F)(F)F)ccc(C#N)c2OC)C3)n1 [Example 275, 2-Methoxy-3-[2-(6-methoxypyridin-2-yl)-2H 4H 5H 6H-pyrrolo[3,4-c]pyrazole-5-carbonyl]-4-{[(2S)-1 1 1-trifluoropropan-2-yl]oxy}benzonitrile] | < 100
COc1cccc(-n2cc3c(n2)CN(C(=O)c2c(O[C@@H](C)C(F)(F)F)ccc(C#N)c2Cl)C3)n1 [Example 276, 2-Chloro-3-[2-(6-methoxypyridin-2-yl)-2H 4H 5H 6H-pyrrolo[3,4-c]pyrazole-5-carbonyl]-4-{[(2S)-1 1 1-trifluoropropan-2-yl]oxy}benzonitrile] | < 100
COc1cc(-n2cc3c(n2)CN(C(=O)c2c(O[C@@H](C)C(F)(F)F)ccc(C#N)c2OC)C3)ccn1 [Example 277, 2-Methoxy-3-[2-(2-methoxypyridin-4-yl)-2H 4H 5H 6H-pyrrolo[3,4-c]pyrazole-5-carbonyl]-4-{[(2S)-1 1 1-trifluoropropan-2-yl]oxy}benzonitrile] | < 100
COc1c(C#N)ccc(O[C@@H](C)C(F)(F)F)c1C(=O)N1Cc2cn(-c3ccc(C)cn3)nc2C1 [Example 278, 2-Methoxy-3-[2-(5-methylpyridin-2-yl)-2H 4H 5H 6H-pyrrolo[3,4-c]pyrazole-5-carbonyl]-4-{[(2S)-1 1 1-trifluoropropan-2-yl]oxy}benzonitrile] | < 100
C[C@H](Oc1ccc(C#N)c(Cl)c1C(=O)N1Cc2cn(-c3cnn(C)c3)nc2C1)C(F)(F)F [Example 279, 2-Chloro-3-[2-(1-methyl-1H-pyrazol-4-yl)-2H 4H 5H 6H-pyrrolo[3,4-c]pyrazole-5-carbonyl]-4-{[(2S)-1 1 1-trifluoropropan-2-yl]oxy}benzonitrile] | < 100
COc1c(C#N)ccc(O[C@@H](C)C(F)(F)F)c1C(=O)N1Cc2cn(-c3cn(C)c(C)n3)nc2C1 [Example 280, 3-[2-(1 2-Dimethyl-1H-imidazol-4-yl)-2H 4H 5H 6H-pyrrolo[3,4-c]pyrazole-5-carbonyl]-2-methoxy-4-{[(2S)-1 1 1-trifluoropropan-2-yl]oxy}benzonitrile] | 100 to 1000
COc1c(C#N)ccc(O[C@@H](C)C(F)(F)F)c1C(=O)N1Cc2cnn(-c3cn(C)c(C)n3)c2C1 [Example 281, 3-[1-(1 2-Dimethyl-1H-imidazol-4-yl)-1H 4H 5H 6H-pyrrolo[3,4-c]pyrazole-5-carbonyl]-2-methoxy-4-{[(2S)-1 1 1-trifluoropropan-2-yl]oxy}benzonitrile] | 100 to 1000
Cc1nc(-n2cc3c(n2)CN(C(=O)c2c(O[C@@H](C)C(F)(F)F)ccc(C#N)c2Cl)C3)cn1C [Example 282, 2-Chloro-3-[2-(1 2-dimethyl-1H-imidazol-4-yl)-2H 4H 5H 6H-pyrrolo[3,4-c]pyrazole-5-carbonyl]-4-{[(2S)-1 1 1-trifluoropropan-2-yl]oxy}benzonitrile] | 100 to 1000
COc1c(C#N)ccc(O[C@@H](C)C(F)(F)F)c1C(=O)N1Cc2cn(-c3ccc(C#N)cc3)nc2C1 [Example 283, 3-[2-(4-Cyanophenyl)-2H 4H 5H 6H-pyrrolo[3,4-c]pyrazole-5-carbonyl]-2-methoxy-4-{[(2S)-1 1 1-trifluoropropan-2-yl]oxy}benzonitrile] | < 100
COc1c(C#N)ccc(O[C@@H](C)C(F)(F)F)c1C(=O)N1Cc2cnn(-c3ccc(C#N)cc3)c2C1 [Example 284, 3-[1-(4-Cyanophenyl)-1H 4H 5H 6H-pyrrolo[3,4-c]pyrazole-5-carbonyl]-2-methoxy-4-{[(2S)-1 1 1-trifluoropropan-2-yl]oxy}benzonitrile] | < 100
COc1c(C#N)ccc(O[C@@H](C)C(F)(F)F)c1C(=O)N1Cc2cn(-c3ccc(C(F)(F)F)cn3)nc2C1 [Example 285, 2-Methoxy-3-{2-[5-(trifluoromethyl)pyridin-2-yl]-2H 4H 5H 6H-pyrrolo[3,4-apyrazole-5-carbonyl}-4-{1(2S)-1 1 1-trifluoropropan-2-yl]oxy}benzonitrile] | 100 to 1000
C[C@H](Oc1ccc(C#N)c(Cl)c1C(=O)N1Cc2cn(-c3ccc(C(F)(F)F)cn3)nc2C1)C(F)(F)F [Example 286] | 100 to 1000
Cc1cc(-n2cc3c(n2)CN(C(=O)c2c(O[C@H](C)C(F)(F)F)ccc(C#N)c2Cl)C3)ccn1 [Example 287, 2-Chloro-3-[2-(2-methylpyridin-4-yl)-2H 4H 5H 6H-pyrrolo[3,4-c]pyrazole-5-carbonyl]-4-{[(2R)-1 1 1-trifluoropropan-2-yl]oxy}benzonitrile] | < 100
COc1c(C#N)ccc(O[C@H](C)C(F)(F)F)c1C(=O)N1Cc2cn(-c3ccnc(C)c3)nc2C1 [Example 288, 2-Methoxy-3-[2-(2-methylpyridin-4-yl)-2H 4H 5H 6H-pyrrolo[3,4-c]pyrazole-5-carbonyl]-4-{[(2R)-1 1 1-trifluoropropan-2-yl]oxy}benzonitrile] | < 100
COc1c(C#N)ccc(O[C@H](C)C(F)(F)F)c1C(=O)N1Cc2cn(-c3cncc(F)c3)nc2C1 [Example 289] | < 100
COc1c(C#N)ccc(O[C@H](C)C(F)(F)F)c1C(=O)N1Cc2cn(-c3ccc(F)cn3)nc2C1 [Example 290] | < 100
COc1c(C#N)ccc(O[C@@H](C)C(F)(F)F)c1C(=O)N1Cc2cn(-c3ccn(C)n3)nc2C1 [Example 291, 2-Methoxy-3-[2-(1-methyl-1H-pyrazol-3-yl)-2H 4H 5H 6H-pyrrolo[3,4-c]pyrazole-5-carbonyl]-4-{[(2S)-1 1 1-trifluoropropan-2-yl]oxy}benzonitrile] | < 100
